# Laboratory results from ChEMBL document CHEMBL5465560, “Selectivity Literature for EUbOPEN Chemogenomic Library” (2024).
# What was measured:
# [1] = target: Protein arginine N-methyltransferase 5 (Homo sapiens, UniProt O14744); assay: Selectivity interaction (Scintillation proximity assays) EUB0000230b PRMT5
# [2] = target: Phosphatidylinositol 4,5-bisphosphate 3-kinase catalytic subunit beta isoform (Homo sapiens) (UniProt P42338); assay: Selectivity interaction (KinomeScan (DiscoverX)) EUB0000695a PIK3CB; settings: at 100 nM
# Chain of Phosphatidylinositol 4,5-bisphosphate 3-kinase catalytic subunit beta isoform (Homo sapiens) (P42338 whole entry, looked up, canonical isoform): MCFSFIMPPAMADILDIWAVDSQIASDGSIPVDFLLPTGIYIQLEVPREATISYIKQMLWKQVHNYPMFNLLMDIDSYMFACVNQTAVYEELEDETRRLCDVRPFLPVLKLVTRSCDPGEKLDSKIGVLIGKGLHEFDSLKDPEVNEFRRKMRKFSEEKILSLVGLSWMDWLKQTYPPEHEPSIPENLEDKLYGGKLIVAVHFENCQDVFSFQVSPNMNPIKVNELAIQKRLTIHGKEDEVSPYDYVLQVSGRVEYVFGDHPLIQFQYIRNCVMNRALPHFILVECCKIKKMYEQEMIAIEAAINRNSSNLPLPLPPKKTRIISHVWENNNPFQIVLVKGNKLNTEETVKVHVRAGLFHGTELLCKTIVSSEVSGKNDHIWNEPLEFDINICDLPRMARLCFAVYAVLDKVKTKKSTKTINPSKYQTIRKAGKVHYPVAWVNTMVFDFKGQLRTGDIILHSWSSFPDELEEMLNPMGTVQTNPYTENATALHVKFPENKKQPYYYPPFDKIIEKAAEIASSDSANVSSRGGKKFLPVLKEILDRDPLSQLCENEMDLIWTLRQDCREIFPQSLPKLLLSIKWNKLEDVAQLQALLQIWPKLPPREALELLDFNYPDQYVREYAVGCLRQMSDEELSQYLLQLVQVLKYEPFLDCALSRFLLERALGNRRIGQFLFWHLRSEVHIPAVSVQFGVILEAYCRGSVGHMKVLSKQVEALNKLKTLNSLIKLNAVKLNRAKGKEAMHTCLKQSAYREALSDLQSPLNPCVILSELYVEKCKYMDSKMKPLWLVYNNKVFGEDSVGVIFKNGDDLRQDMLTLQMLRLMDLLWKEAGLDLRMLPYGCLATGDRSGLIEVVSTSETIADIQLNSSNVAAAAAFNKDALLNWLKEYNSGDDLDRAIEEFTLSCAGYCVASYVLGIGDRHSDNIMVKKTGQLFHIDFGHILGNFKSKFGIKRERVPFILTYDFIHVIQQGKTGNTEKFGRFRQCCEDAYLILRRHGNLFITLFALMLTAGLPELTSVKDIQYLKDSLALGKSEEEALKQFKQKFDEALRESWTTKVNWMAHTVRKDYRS
# [3] = target: Glutamate receptor ionotropic, NMDA 1 (Homo sapiens) (UniProt Q05586); assay: Selectivity interaction (Eurofins CEREP Diversity Profile (receptors and ion channels)) EUB0000279b GRIN1; settings: at 10 µM
# [4] = target: T1, Dual specificity mitogen-activated protein kinase kinase 3 (Homo sapiens) (UniProt P46734); settings: at 10 µM
# T1 sequence (whole entry): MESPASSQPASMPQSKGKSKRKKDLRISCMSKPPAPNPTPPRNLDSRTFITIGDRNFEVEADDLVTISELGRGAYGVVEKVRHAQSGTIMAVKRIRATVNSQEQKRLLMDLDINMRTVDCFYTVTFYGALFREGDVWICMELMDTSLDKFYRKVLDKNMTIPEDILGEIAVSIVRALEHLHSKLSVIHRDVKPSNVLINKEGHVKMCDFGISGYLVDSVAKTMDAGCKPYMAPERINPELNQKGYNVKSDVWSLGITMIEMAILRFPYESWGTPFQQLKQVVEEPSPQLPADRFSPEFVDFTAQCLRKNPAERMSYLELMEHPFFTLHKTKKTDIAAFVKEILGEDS
# [5] = tested on: Epidermal growth factor receptor (Homo sapiens), P00533 [L858R]; settings: at 10 µM
# Chain of Epidermal growth factor receptor (Homo sapiens), P00533 [L858R] (P00533 whole entry L858R): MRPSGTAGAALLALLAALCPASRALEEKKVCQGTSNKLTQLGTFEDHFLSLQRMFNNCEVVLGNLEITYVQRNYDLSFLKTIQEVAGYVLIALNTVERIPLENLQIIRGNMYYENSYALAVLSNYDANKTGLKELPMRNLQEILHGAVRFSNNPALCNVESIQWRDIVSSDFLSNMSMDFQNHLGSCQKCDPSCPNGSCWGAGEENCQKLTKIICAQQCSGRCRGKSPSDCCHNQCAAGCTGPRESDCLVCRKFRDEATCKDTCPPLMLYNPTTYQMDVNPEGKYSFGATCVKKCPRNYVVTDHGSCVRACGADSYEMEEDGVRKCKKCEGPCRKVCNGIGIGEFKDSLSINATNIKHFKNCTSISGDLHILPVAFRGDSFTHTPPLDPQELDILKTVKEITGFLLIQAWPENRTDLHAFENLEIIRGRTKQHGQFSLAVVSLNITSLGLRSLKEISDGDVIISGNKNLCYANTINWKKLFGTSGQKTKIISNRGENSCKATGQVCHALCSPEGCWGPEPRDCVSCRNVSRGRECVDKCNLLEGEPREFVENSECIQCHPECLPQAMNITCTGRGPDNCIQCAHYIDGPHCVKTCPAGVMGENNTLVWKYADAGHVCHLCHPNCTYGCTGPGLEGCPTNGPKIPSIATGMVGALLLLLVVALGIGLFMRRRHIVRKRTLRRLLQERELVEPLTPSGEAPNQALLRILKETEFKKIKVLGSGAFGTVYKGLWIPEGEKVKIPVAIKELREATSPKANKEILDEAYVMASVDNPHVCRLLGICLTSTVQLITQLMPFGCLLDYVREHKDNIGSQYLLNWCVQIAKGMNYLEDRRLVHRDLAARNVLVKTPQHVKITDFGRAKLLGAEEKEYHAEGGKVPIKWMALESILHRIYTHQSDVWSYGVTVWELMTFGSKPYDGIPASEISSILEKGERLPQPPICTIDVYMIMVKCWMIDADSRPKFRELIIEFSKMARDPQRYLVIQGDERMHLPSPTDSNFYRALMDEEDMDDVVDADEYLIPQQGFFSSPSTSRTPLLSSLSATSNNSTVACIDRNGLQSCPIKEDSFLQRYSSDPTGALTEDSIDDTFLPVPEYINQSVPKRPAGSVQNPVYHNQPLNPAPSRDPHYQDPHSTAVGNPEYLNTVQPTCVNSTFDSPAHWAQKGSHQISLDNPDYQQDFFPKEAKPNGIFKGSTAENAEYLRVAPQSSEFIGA
# [6] = target: G protein-coupled receptor kinase 4 (Homo sapiens) (UniProt P32298); assay: Selectivity interaction (ProQinase) EUB0000171b GRK4
# Chain of G protein-coupled receptor kinase 4 (Homo sapiens) (P32298 whole entry, looked up): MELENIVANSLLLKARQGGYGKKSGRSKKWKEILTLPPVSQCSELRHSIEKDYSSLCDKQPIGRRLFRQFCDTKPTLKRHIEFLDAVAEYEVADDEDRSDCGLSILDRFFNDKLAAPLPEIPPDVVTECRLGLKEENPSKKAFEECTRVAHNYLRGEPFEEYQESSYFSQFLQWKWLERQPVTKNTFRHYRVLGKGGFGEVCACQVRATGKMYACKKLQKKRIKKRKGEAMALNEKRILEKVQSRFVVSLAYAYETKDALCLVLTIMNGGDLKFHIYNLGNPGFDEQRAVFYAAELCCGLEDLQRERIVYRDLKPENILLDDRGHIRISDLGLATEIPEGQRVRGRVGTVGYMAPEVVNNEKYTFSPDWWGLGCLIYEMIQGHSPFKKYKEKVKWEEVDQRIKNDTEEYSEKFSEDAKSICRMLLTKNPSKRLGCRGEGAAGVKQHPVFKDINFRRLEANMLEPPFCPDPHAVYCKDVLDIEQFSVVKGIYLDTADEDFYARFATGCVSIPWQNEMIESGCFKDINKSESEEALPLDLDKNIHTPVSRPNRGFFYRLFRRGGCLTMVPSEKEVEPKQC
# [7] = target: Calcium/calmodulin-dependent protein kinase type II subunit gamma (Homo sapiens) (UniProt Q13555); assay: Selectivity interaction (ActivX KiNativ screen (ex vivo kinase selectivity in human PBMCs)) EUB0001619a CAMK2G; type: cell-based; settings: PBMC, at 1 µM
# Chain of Calcium/calmodulin-dependent protein kinase type II subunit gamma (Homo sapiens) (Q13555 whole entry): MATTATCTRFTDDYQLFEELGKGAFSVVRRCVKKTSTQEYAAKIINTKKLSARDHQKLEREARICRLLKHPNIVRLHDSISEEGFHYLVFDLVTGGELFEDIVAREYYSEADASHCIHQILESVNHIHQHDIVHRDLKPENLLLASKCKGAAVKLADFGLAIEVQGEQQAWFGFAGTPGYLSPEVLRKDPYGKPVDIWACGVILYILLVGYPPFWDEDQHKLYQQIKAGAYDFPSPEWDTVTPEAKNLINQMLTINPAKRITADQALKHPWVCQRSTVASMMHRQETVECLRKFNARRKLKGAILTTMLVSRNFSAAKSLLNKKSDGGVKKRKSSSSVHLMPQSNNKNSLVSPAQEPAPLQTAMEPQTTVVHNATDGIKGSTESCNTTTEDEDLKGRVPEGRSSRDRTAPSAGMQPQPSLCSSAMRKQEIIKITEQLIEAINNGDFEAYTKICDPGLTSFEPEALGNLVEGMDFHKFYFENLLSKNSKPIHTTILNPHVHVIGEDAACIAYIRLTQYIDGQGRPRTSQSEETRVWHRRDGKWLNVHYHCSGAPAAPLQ
# [8] = target: Mitogen-activated protein kinase 6 (Homo sapiens) (UniProt Q16659); assay: Selectivity interaction (KinomeScan (DiscoverX)) EUB0000618a MAPK6; settings: at 10 µM
# Chain of Mitogen-activated protein kinase 6 (Homo sapiens) (Q16659 whole entry): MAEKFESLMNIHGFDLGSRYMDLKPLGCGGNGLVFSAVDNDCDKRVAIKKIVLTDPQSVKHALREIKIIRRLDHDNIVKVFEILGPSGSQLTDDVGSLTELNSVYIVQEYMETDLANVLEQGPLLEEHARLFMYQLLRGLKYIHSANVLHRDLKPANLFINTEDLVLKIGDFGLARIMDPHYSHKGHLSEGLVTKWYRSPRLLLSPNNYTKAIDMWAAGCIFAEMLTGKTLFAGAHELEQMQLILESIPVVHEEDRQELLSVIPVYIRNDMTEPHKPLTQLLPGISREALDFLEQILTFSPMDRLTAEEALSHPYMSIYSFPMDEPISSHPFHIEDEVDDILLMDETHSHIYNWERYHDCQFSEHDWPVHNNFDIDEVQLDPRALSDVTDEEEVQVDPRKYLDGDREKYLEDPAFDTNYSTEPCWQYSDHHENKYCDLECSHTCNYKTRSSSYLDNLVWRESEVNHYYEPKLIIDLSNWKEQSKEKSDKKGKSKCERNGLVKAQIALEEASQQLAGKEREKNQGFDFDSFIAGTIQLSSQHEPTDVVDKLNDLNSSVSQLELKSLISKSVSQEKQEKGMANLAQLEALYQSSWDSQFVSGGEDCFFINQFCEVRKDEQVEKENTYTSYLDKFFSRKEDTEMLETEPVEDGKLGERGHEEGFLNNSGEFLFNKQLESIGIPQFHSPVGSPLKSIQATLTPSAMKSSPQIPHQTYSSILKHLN
# [9] = target: Serine/threonine-protein kinase pim-2 (Homo sapiens, UniProt Q9P1W9); assay: Selectivity interaction (KinomeScan (DiscoverX)) EUB0000618a PIM2; settings: at 10 µM
# Chain of Serine/threonine-protein kinase pim-2 (Q9P1W9 whole entry, looked up): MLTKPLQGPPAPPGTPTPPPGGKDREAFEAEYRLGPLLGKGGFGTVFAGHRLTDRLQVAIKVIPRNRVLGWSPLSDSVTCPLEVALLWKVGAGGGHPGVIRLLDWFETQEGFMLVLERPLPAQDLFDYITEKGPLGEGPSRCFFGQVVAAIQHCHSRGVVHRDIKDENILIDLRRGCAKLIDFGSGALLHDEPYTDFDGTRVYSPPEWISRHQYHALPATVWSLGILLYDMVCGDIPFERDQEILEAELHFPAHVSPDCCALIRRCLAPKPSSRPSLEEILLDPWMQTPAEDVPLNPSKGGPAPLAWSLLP
# [10] = target: Bromodomain-containing protein 4 (Homo sapiens, UniProt O60885); assay: Selectivity interaction (Kinase panel (DSF assay)) EUB0001559a BRD4
# [11] = target: Serine/threonine-protein kinase PAK 3 (Homo sapiens) (UniProt O75914); assay: Selectivity interaction (KinomeScan (DiscoverX)) EUB0000607a PAK3; settings: at 10 µM
# Chain of Serine/threonine-protein kinase PAK 3 (Homo sapiens) (O75914 whole entry, looked up): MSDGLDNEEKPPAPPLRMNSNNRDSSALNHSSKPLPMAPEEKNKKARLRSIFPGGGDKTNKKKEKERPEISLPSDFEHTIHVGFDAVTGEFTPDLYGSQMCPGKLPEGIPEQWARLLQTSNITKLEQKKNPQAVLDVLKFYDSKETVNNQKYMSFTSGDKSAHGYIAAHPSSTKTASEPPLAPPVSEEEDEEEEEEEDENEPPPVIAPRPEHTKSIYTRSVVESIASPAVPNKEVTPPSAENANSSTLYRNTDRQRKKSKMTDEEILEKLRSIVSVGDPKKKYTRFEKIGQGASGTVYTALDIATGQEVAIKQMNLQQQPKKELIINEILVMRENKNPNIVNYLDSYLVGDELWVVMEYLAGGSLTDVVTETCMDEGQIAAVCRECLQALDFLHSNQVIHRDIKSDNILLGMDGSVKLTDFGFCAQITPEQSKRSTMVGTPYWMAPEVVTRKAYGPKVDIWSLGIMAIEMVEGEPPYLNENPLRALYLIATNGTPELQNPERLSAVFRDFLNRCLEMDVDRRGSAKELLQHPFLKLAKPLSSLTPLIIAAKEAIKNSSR
# [12] = target: T2, Serine/threonine-protein kinase Nek5 (Homo sapiens) (UniProt Q6P3R8); assay: Selectivity interaction (KinomeScan (DiscoverX)) EUB0000607a NEK5; settings: at 10 µM
# T2 sequence (whole entry): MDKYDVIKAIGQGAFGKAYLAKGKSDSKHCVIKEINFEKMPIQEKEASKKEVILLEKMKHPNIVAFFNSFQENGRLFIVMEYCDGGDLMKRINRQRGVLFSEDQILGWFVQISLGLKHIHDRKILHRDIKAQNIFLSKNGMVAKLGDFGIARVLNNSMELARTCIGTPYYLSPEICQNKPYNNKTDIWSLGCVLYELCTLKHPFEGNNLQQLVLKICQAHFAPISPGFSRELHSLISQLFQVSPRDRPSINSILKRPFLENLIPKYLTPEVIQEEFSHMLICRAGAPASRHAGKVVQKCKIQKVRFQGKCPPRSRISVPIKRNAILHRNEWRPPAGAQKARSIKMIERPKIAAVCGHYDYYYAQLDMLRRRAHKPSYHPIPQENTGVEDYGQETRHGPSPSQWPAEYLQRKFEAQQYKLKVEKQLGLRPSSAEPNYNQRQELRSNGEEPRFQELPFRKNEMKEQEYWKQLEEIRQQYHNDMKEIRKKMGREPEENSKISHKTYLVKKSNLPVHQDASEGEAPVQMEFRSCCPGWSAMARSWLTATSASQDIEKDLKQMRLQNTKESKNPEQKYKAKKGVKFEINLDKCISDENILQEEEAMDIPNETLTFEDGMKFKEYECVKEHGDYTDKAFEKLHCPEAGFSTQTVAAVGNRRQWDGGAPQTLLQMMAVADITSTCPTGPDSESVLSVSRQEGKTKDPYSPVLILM
# [13] = target: T3, Tyrosine-protein kinase JAK3 (Homo sapiens) (UniProt P52333); assay: Selectivity interaction (KinomeScan (DiscoverX)) EUB0000666a JAK3; settings: at 10 µM
# T3 sequence (whole entry): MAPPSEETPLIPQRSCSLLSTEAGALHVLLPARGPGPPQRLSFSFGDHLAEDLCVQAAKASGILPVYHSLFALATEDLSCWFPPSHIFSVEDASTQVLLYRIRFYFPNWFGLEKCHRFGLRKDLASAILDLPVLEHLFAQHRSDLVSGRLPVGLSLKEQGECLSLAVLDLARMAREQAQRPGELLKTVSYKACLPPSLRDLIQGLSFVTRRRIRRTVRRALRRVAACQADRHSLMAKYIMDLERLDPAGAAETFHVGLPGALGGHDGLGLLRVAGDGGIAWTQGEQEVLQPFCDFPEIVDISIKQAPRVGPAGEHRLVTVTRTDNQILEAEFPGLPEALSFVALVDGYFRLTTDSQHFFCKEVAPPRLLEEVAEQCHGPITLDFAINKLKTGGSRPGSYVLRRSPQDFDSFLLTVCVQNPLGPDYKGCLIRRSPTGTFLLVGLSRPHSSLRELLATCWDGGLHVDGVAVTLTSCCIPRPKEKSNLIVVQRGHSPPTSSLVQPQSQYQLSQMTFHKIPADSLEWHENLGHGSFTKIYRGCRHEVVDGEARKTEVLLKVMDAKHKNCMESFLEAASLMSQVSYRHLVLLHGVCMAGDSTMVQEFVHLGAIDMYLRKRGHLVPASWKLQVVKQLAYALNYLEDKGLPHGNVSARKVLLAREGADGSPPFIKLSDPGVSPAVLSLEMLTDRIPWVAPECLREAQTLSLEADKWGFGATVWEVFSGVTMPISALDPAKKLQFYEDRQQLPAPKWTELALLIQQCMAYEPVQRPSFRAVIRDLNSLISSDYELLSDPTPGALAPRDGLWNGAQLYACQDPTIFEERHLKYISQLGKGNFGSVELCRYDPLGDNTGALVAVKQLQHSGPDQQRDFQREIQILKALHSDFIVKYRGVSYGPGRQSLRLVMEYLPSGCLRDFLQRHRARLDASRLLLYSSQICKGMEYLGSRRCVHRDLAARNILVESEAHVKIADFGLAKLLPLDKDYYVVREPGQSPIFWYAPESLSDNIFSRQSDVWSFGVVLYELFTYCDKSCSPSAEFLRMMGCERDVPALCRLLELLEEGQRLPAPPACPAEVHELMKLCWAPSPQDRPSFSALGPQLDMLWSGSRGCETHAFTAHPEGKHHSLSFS
compound,measurement,setting,value
CNCCN1CCC(c2cc(CN(C)C(=O)c3cccc(Oc4ccccc4)c3)ccn2)CC1,IC50,[1],> 10 µM
Cc1cc(F)c(C(=O)Nc2cccc(-c3nncn3C(C)C)n2)cc1-n1cnc(C2CC2)c1,% of control,[2],100%
CC(=O)c1cc(-c2ccccc2OCC2CC2)c2ncccn12,% of control,[3],106%
CCN(CC)CCCCNc1ncc2cc(-c3cc(OC)cc(OC)c3)c(NC(=O)NC(C)(C)C)nc2n1,% of control,[4],100%
COCC(=O)NC/C=C/c1ccc2ncnc(Nc3ccc(Oc4ccc(C)nc4)c(C)c3)c2c1 [CP-724714],% of control,[5],0.6%
C=CC(=O)Nc1cccc(C(=O)Nc2ccc(Nc3cc(-c4[nH]c(SC)nc4C)ccn3)cc2)c1,% of control,[6]; at 1 µM,101%
same,% of control,[6]; at 5 µM,97%
N#Cc1cccc(-c2c[nH]c3ncnc(N4CCOCC4)c23)c1,% of inhibition,[7],10%
O[C@H]1CC[C@H](Nc2ncc3nc(Nc4c(F)cc(F)cc4F)n([C@H]4CCOC4)c3n2)CC1,% of control,[8],24%
same,% of control,[9],100%
CN(C(=O)c1cnn2cccnc12)c1cc2c(cc1N1CCOCC1)C(=O)N(C[C@@H](F)C(C)(C)O)C2,dTM,[10],-0.8 K
CNC(=O)Nc1ccc(-c2nc(N3CC4CCC(C3)O4)c3cnn(C4CCC5(CC4)OCCO5)c3n2)cc1,% of control,[11],99%
same,% of control,[12],81%
O=C(NOC[C@H](O)CO)c1ccc(F)c(F)c1Nc1ccc(I)cc1F,% of control,[13],100%
